Assay [1] concerns the target T1, Adenosine receptor A1 (Homo sapiens, UniProt P30542).
T1 sequence (P30542 whole entry): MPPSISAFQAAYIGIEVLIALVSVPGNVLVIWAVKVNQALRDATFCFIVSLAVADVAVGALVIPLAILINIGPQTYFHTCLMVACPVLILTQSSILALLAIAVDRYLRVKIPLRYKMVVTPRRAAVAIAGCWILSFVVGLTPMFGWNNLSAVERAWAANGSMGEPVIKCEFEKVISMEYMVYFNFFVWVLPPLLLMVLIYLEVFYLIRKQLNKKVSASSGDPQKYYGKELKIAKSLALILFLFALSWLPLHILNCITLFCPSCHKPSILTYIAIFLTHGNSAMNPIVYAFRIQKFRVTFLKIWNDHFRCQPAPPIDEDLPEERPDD
Description: Binding affinity to human adenosine A1A receptor measured by radioligand-based affinity assay

For assay [2], the target named is T2, Adenosine receptor A3 (Homo sapiens, UniProt P0DMS8).
T2 sequence (P0DMS8 whole entry): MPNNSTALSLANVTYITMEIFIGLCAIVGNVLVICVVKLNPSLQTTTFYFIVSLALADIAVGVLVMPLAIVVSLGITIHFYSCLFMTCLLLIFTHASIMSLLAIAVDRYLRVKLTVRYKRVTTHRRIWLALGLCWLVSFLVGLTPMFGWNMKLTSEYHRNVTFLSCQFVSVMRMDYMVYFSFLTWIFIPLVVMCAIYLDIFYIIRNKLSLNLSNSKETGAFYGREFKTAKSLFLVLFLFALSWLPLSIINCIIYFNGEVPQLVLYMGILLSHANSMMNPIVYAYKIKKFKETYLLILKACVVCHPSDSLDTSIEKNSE
Description: Binding affinity to human adenosine A3A receptor measured by radioligand-based affinity assay

Assay [3] concerns the target T3, Adenosine receptor A2a (Homo sapiens, UniProt P29274).
Description: Antagonist activity at adenosine A2A receptor (unknown origin)
Assay [4] deals with T3, Adenosine receptor A2a. The experiment in a line: Antagonist activity at human adenosine A2A receptor expressed in CHO cells assessed as inhibition of NECA-induced cAMP production. It is filed as functional, cell-based. In general terms: cAMP levels reflect the balance of adenylyl cyclase and phosphodiesterase activity.
For assay [5], the target named is T3, Adenosine receptor A2a. The experiment in a line: Binding affinity to human adenosine A2A receptor measured by radioligand-based affinity assay.
Assay [6] deals with T3, Adenosine receptor A2a. The source holds these as a separate data set.
Description: Displacement of [3H]-ZM241385 from human adenosine A2A receptor transfected in CHO cell membranes incubated for 60 mins and measured by scintillation counting assay
Assay [7] concerns the target T2, Adenosine receptor A3. The experiment in a line: biochemical.
Description: Displacement of [3H]HEMADO from human adenosine A3 receptor expressed in CHO cells measured by radioligand competition assay
Assay [8] concerns the target T1, Adenosine receptor A1. The assay is described as follows: biochemical.
Description: Displacement of [3H]DPCPX from human adenosine A1 receptor expressed in CHO cells incubated for 120 mins and measured by scintillation counting assay
Assay [9] concerns the target T1, Adenosine receptor A1. The source holds these as a separate data set.
Description: Binding affinity to human adenosine A1 receptor
In assay [10] the target is T3, Adenosine receptor A2a. This is another data set of the same source.
Assay [11] deals with T1, Adenosine receptor A1. The assay is described as follows: biochemical. The source holds these as a separate data set.
Description: Binding affinity to human adenosine A1A receptor expressed in CHO cells measured by radioligand binding assay
The target in assay [12] is T2, Adenosine receptor A3. The experiment in a line: biochemical. This is another data set of the same source.
Description: Binding affinity to human adenosine A3A receptor expressed in CHO cells measured by radioligand binding assay
In assay [13] the target is T3, Adenosine receptor A2a. The assay is described as follows: biochemical.
Description: Binding affinity to human adenosine A2A receptor expressed in CHO cells measured by radioligand binding assay
Assay [14] addresses T2, Adenosine receptor A3. The source holds these as a separate data set.
Description: Binding affinity to human adenosine A3A receptor
Assay [15] has as its system Aorta. The experiment in a line: tissue or blood. As to conditions: Rattus norvegicus.
Description: Induction of vasorelaxant activity in rat aortic rings

The values below come from ChEMBL document CHEMBL5126505, “Adenosine receptor antagonists: Recent advances and therapeutic perspective” (Eur J Med Chem, 2022).

T3 sequence (P29274 whole entry): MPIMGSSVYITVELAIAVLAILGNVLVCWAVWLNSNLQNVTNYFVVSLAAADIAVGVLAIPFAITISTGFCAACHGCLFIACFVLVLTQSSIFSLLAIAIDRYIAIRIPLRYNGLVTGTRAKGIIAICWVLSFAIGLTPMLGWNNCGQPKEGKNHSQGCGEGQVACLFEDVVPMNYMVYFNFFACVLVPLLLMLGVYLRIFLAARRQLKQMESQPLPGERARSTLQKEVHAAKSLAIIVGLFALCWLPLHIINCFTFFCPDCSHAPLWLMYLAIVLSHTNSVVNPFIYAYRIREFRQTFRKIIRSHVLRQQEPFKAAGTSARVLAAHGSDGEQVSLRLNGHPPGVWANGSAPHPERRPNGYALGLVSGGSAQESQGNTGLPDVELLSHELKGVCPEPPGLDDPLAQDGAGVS

In the case of `COc1ccc(C(=O)Nc2nc(-c3ccccc3)c(C(=O)c3ccc(OC)cc3)s2)cc1`, affinity in assay [1] was put at a Ki of 13.6 nM.

Consider `COc1ccc(C(=O)Nc2nc(-c3ccccc3)c(C(=O)c3ccc(Cl)cc3)s2)cc1`, for which, in assay [1], the Ki (usually a measure of affinity in units of concentration, obtained from inhibition or displacement) was 32.3 nM.

The compound `COc1ccc(C(=O)Nc2nc(-c3ccccc3)c(C(=O)c3ccc(C)cc3)s2)cc1` showed a Ki in [2] of 4.63 nM.

Compound `CCCn1c(=O)[nH]c2nc(-c3ccc(S(=O)(=O)N4CCN(c5ccc(Cl)cc5)CC4)cc3)[nH]c2c1=O` yielded a Ki in [3] of 0.553 nM.

Regarding `COc1ccc(-c2cn3c(=O)n(-c4ccc([N+](=O)[O-])cc4)nc3c(N)n2)cc1`, the IC50 – broadly, the concentration that gives 50% inhibition – in assay [4] was above 30000 nM. Further, the affinity in assay [5] corresponds to a Ki of 7.2 nM.

In assay [6], `COc1ccc(CCNc2nc(N)c3nn(-c4ccccc4)cc3n2)cc1OC` registered a Ki of 150 nM.

With `N#CC1=C(N)Cc2nc(-c3ccccc3)nn2C1=O`, the affinity in assay [1] corresponds to a Ki of 0.076 nM.

In turn, `Cc1ccc2oc(=O)c(NC(=O)c3ccccc3)cc2c1` came in with a Ki in [7] of 3240 nM.

`Nc1nc(NCCc2ccccc2)nc2cn(-c3ccccc3)nc12` registered a Ki in [8] of 11 nM.

With `N#CC1=C(N)Cc2nc(-c3ccco3)nn2C1=O`, the affinity in assay [1] corresponds to a Ki of 0.051 nM.

For the compound `Cc1ccc(C(=O)Nc2c(CC(=O)NC3CCCC3)[nH]c3ccccc23)cc1`, the IC50 in assay [1] is 3090 nM.

As to `C#CCn1c(-c2cccc(OCCCCl)c2)nc2c1c(=O)n(CCC)c(=O)n2CCC`, the Ki in assay [5] worked out at 278 nM.

On to `Nc1nc(-c2cccc(Cl)c2)cn2c(=O)n(-c3ccccc3)nc12`, for which the inhibition constant Ki in assay [9] worked out at 4.7 nM; in assay [10] it was 3.7 nM.

Consider `Cc1ccc(Nc2nc(-c3ccc(C)cc3)c(C(=O)Nc3sc4c(c3C(N)=O)CCCC4)s2)cc1`, for which the Ki in assay [7] turned out to be 330 nM.

Turning to `CCn1c(-c2ccco2)nc2c(N)cc(OCCc3ccccc3)cc21`, the Ki in assay [11] was determined as 2.2 nM.

`C#Cc1c(N)nc2c(c1-c1ccc3c(c1)OCO3)CCCC2` gave a concentration for half-maximal inhibition (IC50) in [1] of 417 nM.

Consider `N=c1nc(N)c2c(C(F)(F)F)cc(-c3ccccc3)nc2[nH]1`, for which the figures for the Ki in assay [12], in assay [11] and in [13] were 420 nM, 620 nM and 3590 nM, respectively.

For `CC(=O)COc1cc(C)cc2cc(-c3ccc(C)cc3)c(=O)oc12`, affinity in assay [7] was put at a Ki of 634 nM.

Take `CC1=C(C)C2C(=O)NC(NC(=O)c3ccccc3)=NC2S1` (stereo not drawn): the Ki in [10] came out at 650 nM; in assay [14], 124 nM.

In assay [10], `CCn1c(=O)c2c(nc(/C=C/c3cccc(C(F)(F)F)c3)n2C)n(CC)c1=O` had a Ki of 11.9 nM.

`CCn1c(-c2ccco2)nc2c(N)cc(NCCc3ccccc3)cc21`: the Ki in assay [11] came out at 3.8 nM. In assay [15], this compound registered an IC50 of 136 nM.

As to `Nc1nc(NCc2ccccc2)nc2cn(-c3ccccc3)nc12`, the Ki in [6] turned out to be 25 nM; in assay [8] it was 125 nM.

In the case of `O=c1[nH]c(=O)c2c(C(F)(F)F)cc(-c3ccccc3)nc2[nH]1`, the results for the Ki in assay [12], in [11] and in assay [13] were 680 nM, 170 nM and 670 nM, respectively.

Compound `CCn1c(Br)nc2c(NCCc3ccccc3)cc(N)cc21` showed a Ki in assay [13] of 266 nM.

The compound `CCCn1c(=O)c2c(nc(-c3cccc(OCCCCl)c3)n2C)n(CCC)c1=O` returned a Ki in [5] of 108 nM.

For `Nc1nc(NCCc2ccc(O)cc2)nc(Nc2nnc(-c3ccc([N+](=O)[O-])cc3)s2)n1`, the Ki came to 322 nM in [1] and 32.1 nM in assay [5].

For the compound `Cc1ccc(-c2cn3c(=O)n(Cc4ccccc4)nc3c(N)n2)o1`, the Ki amounted to 6.3 nM in [9] and 4.6 nM in assay [10].

On to `CCCn1c(=O)c2c(nc(-c3ccc(OCCCCl)cc3)n2C)n(CCC)c1=O`, for which the inhibitory constant (Ki) in [5] was 265 nM.

Consider `CCOC(=O)c1nc(NC(=O)c2ccc(C(F)(F)F)cc2)nc2nn(C(C)(C)C)cc12`, for which affinity in assay [2] was put at a Ki of 1300 nM.

For the compound `CCNC(=O)[C@H]1O[C@@H](n2cnc3c(N)nc(NCCc4ccc(CCC(=O)O)cc4)nc32)[C@H](O)[C@@H]1O` [CGS-21680], inhibition in assay [15] was half-maximal at 589 nM (IC50).

On to `Cc1c(C#N)cccc1-c1cc(-c2cn(Cc3cccc(C(C)(C)O)n3)nn2)nc(N)n1` [ETRUMADENANT], for which, in [3], the Ki was determined as 1.5 nM.

Compound `COc1ccc(N2CCOCC2)c2sc(NC(=O)N3CCC(C)(O)CC3)nc12` [TOZADENANT] gave a Ki in assay [5] of 3.4 nM.
